According to patent US20220220106A1, “QUINOLINE COMPOUNDS AND PHARMACEUTICAL COMPOSITIONS AND USES THEREOF” (Academy of Military Medical Sciences, priority 2019, published 2022):

Tests used:
[1] = system: Enterovirus 71 (EV71) H strain; test: In vitro anti-EV71 activity (antiviral activity in RD cells, CellTiter-Glo); format: cell-based; settings: for in vitro anti-EV71 activity, in words: EV71, RD cells; for IC50: Enterovirus A, 96 h, EV71 H strain, RD cells, 4 days, CellTiter-Glo, read-out: IC50
Outline: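 RD cells infected with 100TCID50 EV71 in DMEM+2% FBS, with compound in 10-point three-fold dilutions, cultured 4 days at 37° C. Cell viability by CellTiter-Glo luminescence; inhibition rate relative to cell control fitted to S-curve for IC50. TD50 derived likewise; SI=TD50/IC50.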

[2] = system: RD cells; test: Detection of cytotoxicity in RD cells (CellTiter-Glo); format: cell-based; settings: 4 days, CellTiter-Glo, median toxic dose
Outline: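 RD cells (1*10^5/mL) cultured 4 days at 37 °C with 10 compound concentrations from 3-fold dilution of a 400 μM pretreatment solution, final being 0.5 times that. Viability by CellTiter-Glo luminescence versus cell control; TD50 from S-curve fit; SI=TD50/IC50.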

[3] = target: T1, mTOR kinase (Homo sapiens, UniProt P42345); test: In vitro inhibitory activity on mTOR kinase (TR-FRET, GFP-4E-BP1 substrate); format: biochemical; settings: for IC50: 0.5 μg/mL mTOR, 0.4 μM GFP-4E-BP1, 3 μM ATP
T1 construct: purchased Thermo Fisher PV4753
Description: Preparation of Reaction Buffers:
Basic buffer composition: 50 mM (mmol/L) HEPES (pH 7.5), 1 mM EGTA, 0.01% Tween-20, 10 mM MnCl2, 2 mM DTT (diluted from 500 mM before used).
(2) mTOR kinase buffer solution: 1650 μL of 2.5×mTOR kinase buffer solution was composed of 1640.2 μL of 1× basic buffer and 9.8 μL of mTOR (0.21 mg/mL stock solution), and the final concentration was 0.5 μg/mL.
(3) Detection buffer solution: 3960 μL of 2× detection buffer solution was composed of 3797.1 μL of TR-FRET buffer diluent (purchased from Thermo Fisher, catalog number: PV3574), 4.5 μL of Tb-anti-p4E-BP1 antibody (3.49 μM stock solution, purchased from Thermo Fisher, catalog number: PV4757) and 158 μL of EDTA (500 mM stock solution), and the final concentrations were 2 nM Tb-anti-p4E-BP1 antibody and 10 mM EDTA.
(1) 20 μL of 100% DMSO solution containing 5 mM compound to be tested was added to a 96-well plate.
(2) The compound was serially diluted 3 times in DMSO.
(3) 1 μL of the compound in the previous step was taken, diluted with 19 μL of mTOR kinase buffer, and transferred to another 96-well plate.
(4) 4 μL of mTOR kinase solution (purchased from Thermo Fisher, catalog number: PV4753) was added to a 384-well plate.
(5) 2 μL of the compound in G was taken out and added to the 384-well plate with mTOR kinase, and incubated at room temperature for 15 minutes.
(6) 4 μL of substrate solution was added to initiate the reaction.
The final concentrations of mTOR reaction solution were: 0.5 μg/mL mTOR, 0.4 μM GFP-4E-BP1, 3 μM ATP.
The final concentration of the DMSO solution was 1%.
(7) Incubation was performed for 60 minutes at room temperature.
(8) 10 μL of detection buffer was added. The final concentrations were 2 nM Tb-anti-p4E-BP1 antibody and 10 mM EDTA.
(9) Incubation was performed for 30 minutes at room temperature.
(10) TR-FRET value was read on MD5 multi-mode plate reader (Molecular Devices). The excitation wavelength was 340 nm, the emission wavelength 1 was 495 nm, and the emission wavelength 2 was 520 nm. The ratio of 520 nm/495 nm readings was calculated as TR-FRET value.
IC50 of compound was fitted by nonlinear regression equation:
Y=Bottom+(Top-Bottom)/(1+10^((LogIC50-X)*HillSlope));
X: common logarithm value of compound concentration; Y: TR-FRET value (520 nm/495 nm).

[4] = target: T2, mTORC1 (Homo sapiens, UniProt P42345); test: Western blot, phosphorylation of Thr389 of p70S6K1 in RD cells (mTORC1 inhibition); format: cell-based; settings: 20 μM, 2 hours, Western blot (FIG. 1)
T2 construct: endogenous in cells; host or cells: RD cells
Description: (§1) In order to test the inhibitory activity of the synthesized compounds on the two mTOR complexes, the inhibitory activity experiments of mTORC1 and mTORC2 were carried out. Since mTORC1 and mTORC2 exerted their function by activating the phosphorylation of downstream substrates, the inhibitory activity of the compounds on mTORC1 and mTORC2 could be determined by detecting the phosphorylation levels of the Thr389 site of mTORC1 downstream substrate p70S6K1 and the Ser473 site of mTORC2 downstream substrate Akt.
(§2) Pretreatment of Compound:
(§3) (1) RD cells were cultured in DMEM medium containing 10% FBS and 1×PS (penicillin and streptomycin were at concentrations 100 IU and 100 μg/mL, respectively) at 37° C. and 5% CO2.
(§4) (2) The RD cells (5×10^5 cells/2 mL medium) were inoculated into a 6-well plate and incubated at 37° C. and 5% CO2 for 24 hours.
(§5) (3) The cells were washed once with PBS, and the cells were cultured in serum-free medium without nutrients overnight.
(§6) (4) Formulation of compounds: […]
(§7) Preparation of insulin medium: Insulin was diluted in DMEM medium containing 10% FBS and 1×PS so that the final concentration of insulin was 167 nM.
(§8) Pretreatment of compound to be tested: The compound was dissolved in DMSO so that the concentration of the test compound was 20 mM, and the compound was diluted in 167 nM insulin medium to reach a concentration of 20 μM.
(§9) Preparation of rapamycin solution: Rapamycin was dissolved in DMSO to a concentration of 10 mM, and the rapamycin was diluted in 167 nM insulin medium to reach a concentration of 20 μM.
(§10) (5) The serum-free medium in each well was removed.
(§11) (6) 2 mL of complete medium containing DMSO was added to each well as a control carrier. The final concentration of DMSO was 0.2%.
(§12) (7) 2 mL of 20 μM rapamycin solution and 20 μM the compound to be tested were added to the designated wells, respectively. The final concentration of DMSO was 0.2%.
(§13) (8) The cells were incubated for 2 hours at 37° C. and 5% CO2.
(§14) Protein extraction and concentration determination:
(§15) (1) The cells were washed once with refrigerated PBS, and then the PBS was discarded.
(§16) (2) 150 μL of cell extraction buffer (RIPA, […], catalog number: C1053) was transferred into each well to lyse the cells, and then the resulting cell solution were incubated on ice for 30 minutes.
(§17) (3) Centrifugation was performed at 14000 rpm (13000× g) for 30 minutes at 4° C.
(§18) (4) The supernatant was transferred into a new eppendorf tube, and the cell lysate was stored at −80° C. before testing.
(§19) (5) The protein concentration was determined by BCA method.
(§20) Preparation of Buffer Solutions:
(§21) (1) 100× Protease inhibitor (Beyotime, catalog number: P1005): 1 mL of redistilled water was added to the protease inhibitor and stirred gently until the solid was completely dissolved.
(§22) (2) Lysis Buffer: […] of 100× protease inhibitor and 2× phosphatase inhibitor Cocktails PhosSTOP (Beyotime, catalog number: P1082) were added to 100 mL of the cell extract, and stirred gently until it was completely dissolved.
(§23) (3) Electrophoresis Running Buffer:
(§24) 10×MOPS buffer: 52.33 g of MOPS, 30.29 g of Tris base, 10 mL of 0.5 mol/L EDTA (pH 8.5) and 5 g of SDS was dissolved in 400 mL of redistilled water, stirred to dissolve, and the pH was adjusted to 7.5, then redistilled water was added again to reach a volume of 500 mL; 1×MOPS: 100 mL of 10×MOPS was diluted with redistilled water to 1000 mL.
(§25) (4) 1× Transfer Buffer: […] of 10× transfer buffer (144 g of glucine, 30.3 g of trisbase, and distilled water were mixed to reach a volume of 1 L) and 400 mL of methanol were dissolved in 1500 mL of redistilled water, and then the redistilled water was added to reach a volume of 2000 mL. […]

[5] = target: T3, mTORC2 (Homo sapiens, UniProt P42345); test: Western blot, phosphorylation of Ser473 of Akt in RD cells (mTORC2 inhibition); format: cell-based; settings: 20 μM, 2 hours, Western blot (FIG. 1)
T3 construct: endogenous in cells; host or cells: RD cells
Description: as §1, §2, §3, §4, §5, §6, §7, §8, §9, §10, §11, §12, §13, §14, §15, §16, §17, §18, §19, §20, §21, §22, §23, §24, §25

Row | SMILES | in vitro anti-EV71 activity, in words [1] | IC50 [1] [µM] | TD50 [2] [µM] | inhibitory activity on mTOR kinase, in words [3] | IC50 [3] [µM] | melting point [°C] | p70 phosphorylation expression level [4] | phosphorylation expression level of Akt [5]
1 | Cc1ccc(-c2ccc3ncc4oc(=O)n(-c5cccc(C(F)(F)F)c5)c4c3c2)cn1 [HTL-5-23, 8-[3-(6-methyl)pyridyl]-1-[3-(trifluoromethyl)phenyl]oxazolo[5,4-c] quinolin-2(1H)-one] | moderate inhibitory activity | 4.78 ± 1.73 | 16.88 ± 5.46 | moderate inhibitory activity | 0.257 | 299 to 300 |  | 
2 | CC(=O)/C=C/c1cnc2ccc(-c3ccc(N)cc3)cc2c1Nc1cccc(C(F)(F)F)c1 [HTL-2-35, (E)-6-(4-amino)phenyl-4-[3-(trifluoromethyl)phenyl]aminoquinoline-3-butenone] | moderate anti-EV71 activity | 3.7 ± 0.01 | 5.14 ± 1.92 | weak inhibitory activity | 7.77 | 183 to 185 |  | 
3 | Cc1noc(C)c1-c1ccc2ncc3ccc(=O)n(-c4cccc(C(F)(F)F)c4)c3c2c1 [HTL-7-12, 9-[4-(3,5-dimethyl)isoxazolyl]-2-oxo-1-[3-(trifluoromethyl)phenyl]-1,2-dihydrobenzo[h][1,6]naphthyridine] |  | 36.9 ± 0.41 | >200 |  | 1.21 | 121 to 122 |  | 
4 | CC(C)C(=O)Nc1ccc(-c2ccc3ncc4ccc(=O)n(-c5cccc(C(F)(F)F)c5)c4c3c2)cn1 [HTL-7-07, 9-[3-(2-isobutyrylamino)pyridyl]-2-oxo-1-[3-(trifluoromethyl)phenyl]-1,2-dihydrobenzo[h][1,6]naphthyridine] |  | 0.38 ± 0.39 | 0.46 ± 0.03 |  |  |  | significantly down-regulate | significantly down-regulate
5 | COc1ncccc1-c1ccc2ncc3ccc(=O)n(-c4cccc(C(F)(F)F)c4)c3c2c1 [HTL-7-02, 9-[3-(2-methoxy)pyridyl]-2-oxo-1-[3-(trifluoromethyl)phenyl]-1,2-dihydrobenzo[h][1,6]naphthyridine] |  | > 200 | >200 | moderate inhibitory activity | 0.974 |  |  | 
6 | NC(=O)NC/C=C/c1ccc2ncc3oc(=O)n(-c4cccc(C(F)(F)F)c4)c3c2c1 [HTL-6-34, (E)-8-(3-ureido-propenyl)-1-[3-(trifluoromethyl)phenyl]oxazolo[5,4-c]quinolin-2(1H)-one] |  | > 200 | 66.64 ± 1.17 | moderate inhibitory activity | 0.849 |  |  | 
7 | CCOc1ccc(-c2ccc3ncc4oc(=O)n(-c5cccc(C(F)(F)F)c5)c4c3c2)cc1 [HTL-5-27, 8-(4-ethoxy)phenyl-1-[3-(trifluoromethyl)phenyl]oxazolo[5,4-c]quinolin-2(1H)-one] |  | > 200 | >200 |  |  | 254 |  | 
8 | CC(=O)/C=C/c1cnc2ccc(-c3ccc(C(N)=O)cc3)cc2c1Nc1cccc(C(F)(F)F)c1 [HTL-3-45, (E)-6-(4-carbamoyl)phenyl-4-[3-(trifluoromethyl)phenyl]aminoquinoline-3-butenone] |  | > 200 | 2.42 ± 0.06 |  |  | 211 to 214 |  | 
